Measured values taken from patent publication US20110158908A1, “CYCLOSPORIN A-BINDING PROTEIN” (Sapporo Medical University, priority 2007, published 2011).

Experiments:
[1] = molecular target: T1, recombinant full length CSABP protein (CSABP-FL) (Homo sapiens, UniProt Q9H6S0, S652N/T565S); assay: Molecular association with CSABP by SPR (Biacore 3000); assay type: binding; details: read-out: dissociation constant KD with CSABP
T1 construct: pET-CSABP-FL and pET-CSABP-C (FL=full length, C=C terminal region (CSABP ORF: 193rd to 1430th amino acids)); made in house; host or cells: E. coli BL21 (DE3)
T1 sequence (Q9H6S0 1-1430 T565S/S652N): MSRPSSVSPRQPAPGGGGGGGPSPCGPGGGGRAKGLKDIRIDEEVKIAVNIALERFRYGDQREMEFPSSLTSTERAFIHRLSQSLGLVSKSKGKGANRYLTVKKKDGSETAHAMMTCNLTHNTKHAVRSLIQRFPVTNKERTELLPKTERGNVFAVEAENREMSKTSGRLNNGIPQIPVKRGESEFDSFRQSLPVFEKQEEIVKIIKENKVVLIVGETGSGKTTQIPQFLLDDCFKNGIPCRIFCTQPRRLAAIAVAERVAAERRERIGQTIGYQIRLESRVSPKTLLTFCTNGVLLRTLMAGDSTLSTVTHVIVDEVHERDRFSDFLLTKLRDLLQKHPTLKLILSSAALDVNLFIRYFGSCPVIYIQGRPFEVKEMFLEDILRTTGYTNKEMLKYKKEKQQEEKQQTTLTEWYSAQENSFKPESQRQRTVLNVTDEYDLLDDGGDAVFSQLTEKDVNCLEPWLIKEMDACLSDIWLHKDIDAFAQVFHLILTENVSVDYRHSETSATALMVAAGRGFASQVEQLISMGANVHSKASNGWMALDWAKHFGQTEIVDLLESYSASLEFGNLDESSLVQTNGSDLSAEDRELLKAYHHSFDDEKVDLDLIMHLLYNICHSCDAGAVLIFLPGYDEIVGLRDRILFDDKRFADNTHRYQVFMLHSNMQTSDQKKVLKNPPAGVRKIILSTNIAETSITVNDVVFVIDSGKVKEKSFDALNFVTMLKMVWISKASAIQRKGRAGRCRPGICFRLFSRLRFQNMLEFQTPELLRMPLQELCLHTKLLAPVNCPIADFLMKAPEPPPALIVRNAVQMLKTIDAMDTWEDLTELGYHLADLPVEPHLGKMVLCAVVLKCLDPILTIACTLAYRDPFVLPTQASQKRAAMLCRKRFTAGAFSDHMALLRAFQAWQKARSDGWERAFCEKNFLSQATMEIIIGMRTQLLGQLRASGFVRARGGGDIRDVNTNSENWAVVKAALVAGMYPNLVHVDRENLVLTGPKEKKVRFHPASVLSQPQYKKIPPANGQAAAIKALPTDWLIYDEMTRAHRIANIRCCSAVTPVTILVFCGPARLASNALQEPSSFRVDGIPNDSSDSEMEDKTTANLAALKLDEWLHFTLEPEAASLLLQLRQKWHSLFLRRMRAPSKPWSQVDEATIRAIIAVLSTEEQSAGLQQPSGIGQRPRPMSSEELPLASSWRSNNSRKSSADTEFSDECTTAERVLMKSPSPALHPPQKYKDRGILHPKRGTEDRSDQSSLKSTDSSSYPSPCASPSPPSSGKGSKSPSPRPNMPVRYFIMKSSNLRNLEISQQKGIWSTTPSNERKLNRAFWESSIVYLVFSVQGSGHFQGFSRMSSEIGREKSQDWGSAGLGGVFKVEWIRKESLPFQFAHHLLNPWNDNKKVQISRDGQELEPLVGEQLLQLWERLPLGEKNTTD
Description: Molecular association between recombinant full length CSABP protein (CSABP-FL) and CsA was evaluated by an SPR (surface plasmon resonance) method. SPR measurement employed Biacore 3000 (Biacore). A purified recombinant CSABP protein was immobilized on Biacore chip CM5 by an amine coupling method (amount immobilized about 10000).

[2] = test system: CSABP expression in normal human liver cells; assay: Induction of CSABP expression by inflammatory cytokine in normal human liver cells (real time PCR); assay type: cell-based; details: 8 hours
Description: Normal human liver cells (Primary Human Liver Hepatocyte Cells, DS PHARMA BIOMEDICAL CO., LTD., Cat. No. ABI-3716) were cultured in a 6 well plate at a density of 2×10^5 cells/well, and human IL-1β, TNFα, or IL-6 (all from BioSource) was added thereto to give a final concentration in the well of 1 pg/mL, 100 pg/mL, or 1 ng/mL respectively. 8 hours after the addition, the cells were collected, and expression of CSABP within the cells was quantitatively determined by real time PCR in the same manner as in Example 5 (2).

[3] = test system: CSABP gene expression in MH14 cells; assay: Effect of anti-methylating agent on gene expression in MH14 cells (RT-PCR); assay type: cell-based, human; details: MH14 cells, 0.1, 0.5, 1.0 μM, 4 days
Description: 10^5 cells/well of MH14 cells (liver cancer cell line) were precultured in a 6 well plate with MH14 cell culture medium for 24 hours, and 5-aza-2′-deoxycytidine (Sigma) was then added thereto. Subsequently, medium exchange was carried out every 24 hours with a medium to which the methylation inhibitor had been added, and the cells were collected after 4 days. The amount of 5-aza-2′-deoxycytidine added was 0, 0.1, 0.5, and 1.0 μM. Total RNA was recovered from the cells thus collected in accordance with a standard method using an RNeasy kit (Qiagen, Cat. 74104). This total RNA was subjected to a reverse transcription reaction in accordance with a standard method using a Transcriptor First Strand cDNA Synthesis Kit (Roche, Cat. 04379012001), and the cDNA thus obtained was used as a template. The primer employed the above-mentioned CSABP primer (SEQ ID Nos: 5 and 6), and a PCR reaction was carried out in a Gotaq® PCR system (Promega) at 95° C., 5 minutes×1 cycle, 95° C., 0.5 minutes, 55° C., 0.5 minutes, 72° C., 2.5 minutes×35 cycles, 72° C., 7 minutes×1 cycle. As a positive control, a reaction was carried out in the same manner using the RASSF1A primers RASSF1A transcript variant D 391 to 415 forward primer: 5′-[…]-3′ (SEQ ID No: 38) and RASSF1A transcript variant D 635 to 660 reverse primer: 5′-[…]-3′ (SEQ ID No: 39), which is a gene for which a relationship between expression and DNA methylation in a promoter region has been shown by Cui X et al., Hum Pathol. 2006; 37 (3): 298-311. As an internal control, a reaction was carried out in the same manner using the above-mentioned G6PDH primer (SEQ ID Nos: 20 and 21).

C=CC[C@@H]1/C=C(\C)C[C@H](C)C[C@H](OC)[C@H]2O[C@@](O)(C(=O)C(=O)N3CCCC[C@H]3C(=O)O[C@H](/C(C)=C/[C@@H]3CC[C@@H](O)[C@H](OC)C3)[C@H](C)[C@@H](O)CC1=O)[C@H](C)C[C@@H]2OC [FK506]
Kd [1]: 2500 nM

TNF-α
amount of expression of CSABP compared with the control ([2]; 100 pg/mL): about 1.8 times

IL-6: human inflammatory cytokine (BioSource)
amount of expression of CSABP compared with the control ([2]; 1 ng/mL): some increase

Nc1ncn([C@H]2C[C@H](O)[C@@H](CO)O2)c(=O)n1 [5-aza-2′-deoxycytidine]
amount of expression of the CSABP gene [3]: increase
cytotoxicity [3]: no cytotoxicity was observed
expression of RASSF1A (positive control gene) [3]: increased

IL-1β: human inflammatory cytokine (BioSource)
amount of expression of CSABP compared with the control ([2]; 1 pg/mL): some increase
